How the values were obtained:
[1] = tested on: Puccinia recondita f. sp. Tritici; experiment: Puccinia recondita f. sp. tritici / wheat / leaf disc curative (brown rust); type: in vivo; settings: foliar, 200 ppm in the applied formulation, wheat leaf segments cv. Kanzler, applied 1 day after inoculation, compared to untreated, assessed 6 to 8 days after application, read-out: disease control
Description: Leaf disks or leaf segments of various plant species are cut from plants grown in a greenhouse. The cut leaf disks or segments are placed in multiwell plates (24-well format) onto water agar. The leaf disks are sprayed with a test solution before (preventative) or after (curative) inoculation. Compounds to be tested are prepared as DMSO solutions (max. 10 mg/ml) which are diluted to the appropriate concentration with 0.025% Tween20 just before spraying. The inoculated leaf disks or segments are incubated under defined conditions (temperature, relative humidity, light, etc.) according to the respective test system. A single evaluation of disease level is carried out 3 to 14 days after inoculation, depending on the pathosystem. Percent disease control relative to the untreated check leaf disks or segments is then calculated.
Wheat leaf segments cv. Kanzler are placed on agar in multiwell plates (24-well format). The leaf segments are then inoculated with a spore suspension of the fungus. Plates were stored in darkness at 19° C. and 75% relative humidity. The formulated test compound diluted in water was applied 1 day after inoculation. The leaf segments were incubated at 19° C. and 75% relative humidity under a light regime of 12 hours light/12 hours darkness in a climate cabinet and the activity of a compound was assessed as percent disease control compared to untreated when an appropriate level of disease damage appears in untreated check leaf segments (6 to 8 days after application).
The following compounds at 200 ppm in the applied formulation give at least 80% disease control in this test when compared to untreated control leaf disks under the same conditions, which show extensive disease development.

[2] = tested on: Glomerella lagenarium (Colletotrichum lagenarium); experiment: Glomerella lagenarium (Colletotrichum lagenarium) liquid culture / cucumber / preventative (anthracnose); type: cell-based; settings: Colletotrichum orbiculare; 20 ppm in the applied formulation; conidia in PDB nutrient broth, 24° C.; 3 to 4 days after application; compared to untreated; read-out: disease control (inhibition of growth measured photometrically)
Outline: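 Test compound, diluted from DMSO, was mixed in microtiter wells with fungal conidia taken from cryogenic storage and suspended in PDB nutrient broth. After 3 to 4 days at 24 °C, photometric growth measurement gave antifungal activity as a percentage of the untreated control.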

[3] = tested on: Puccinia recondita f. sp. Tritici; experiment: Puccinia recondita f. sp. tritici / wheat / leaf disc preventative (brown rust); type: in vivo; settings: foliar, 200 ppm in the applied formulation, wheat leaf segments cv. Kanzler, inoculated 1 day after application, compared to untreated, assessed 7 to 9 days after application, read-out: disease control
Outline: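 Sprayed at 200 ppm one day ahead of spore inoculation, wheat leaf segments of cultivar Kanzler sat on agar under 19° C., 75% relative humidity and alternating 12-hour light and dark. Efficacy was taken as percent disease control relative to untreated segments after 7 to 9 days.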

CCN(Cc1ccc(-c2noc(C(F)(F)F)n2)cc1)S(=O)(=O)CC [Compound 1.61, N-ethyl-N-[[4-[5-(trifluoromethyl)-1,2,4-oxadiazol-3-yl]phenyl]methyl] ethanesulfonamide]
≥ 80%: pest or weed control at 200 ppm [1] | inhibition at 20 ppm [2] | pest or weed control at 200 ppm [3]

CCN(Cc1ccc(-c2noc(C(F)(F)F)n2)cc1)S(C)(=O)=O [Compound 1.62, N-ethyl-N-[[4-[5-(trifluoromethyl)-1,2,4-oxadiazol-3-yl]phenyl]methyl] methanesulfonamide]
≥ 80%: pest or weed control at 200 ppm [1] | inhibition at 20 ppm [2] | pest or weed control at 200 ppm [3]

CCN(Cc1ccc(-c2noc(C(F)(F)F)n2)cc1)S(=O)(=O)NC [Compound 1.63, 3-[4-[[ethyl (methylsulfamoyl)amino]methyl]phenyl]-5-(trifluoromethyl)-1,2,4-oxadiazole]
≥ 80%: pest or weed control at 200 ppm [1] | inhibition at 20 ppm [2] | pest or weed control at 200 ppm [3]

CCN(Cc1ccc(-c2noc(C(F)(F)F)n2)cc1)S(=O)(=O)N(C)C [Compound 1.64, N-(dimethylsulfamoyl)-N-[[4-[5-(trifluoromethyl)-1,2,4-oxadiazol-3-yl]phenyl]methyl] ethanamine]
≥ 80%: pest or weed control at 200 ppm [1] | inhibition at 20 ppm [2] | pest or weed control at 200 ppm [3]

CCCN(Cc1ccc(-c2noc(C(F)(F)F)n2)cc1)S(=O)(=O)C1CC1 [Compound 1.69, N-propyl-N-[[4-[5-(trifluoromethyl)-1,2,4-oxadiazol-3-yl]phenyl]methyl] cyclopropanesulfonamide]
≥ 80%: pest or weed control at 200 ppm [1] | inhibition at 20 ppm [2] | pest or weed control at 200 ppm [3]

CCCN(Cc1ccc(-c2noc(C(F)(F)F)n2)cc1)S(=O)(=O)CCOC [Compound 1.73, 2-methoxy-N-propyl-N-[[4-[5-(trifluoromethyl)-1,2,4-oxadiazol-3-yl]phenyl]methyl] ethanesulfonamide]
≥ 80%: pest or weed control at 200 ppm [1] | inhibition at 20 ppm [2] | pest or weed control at 200 ppm [3]

CCCN(Cc1ccc(-c2noc(C(F)(F)F)n2)cc1)S(=O)(=O)CC(=O)OC [Compound 1.76, methyl 2-[propyl-[[4-[5-(trifluoromethyl)-1,2,4-oxadiazol-3-yl]phenyl]methyl]sulfamoyl]acetate]
≥ 80%: pest or weed control at 200 ppm [1] | inhibition at 20 ppm [2] | pest or weed control at 200 ppm [3]

CCCN(Cc1ccc(-c2noc(C(F)(F)F)n2)cc1)S(C)(=O)=O [Compound 1.79, N-propyl-N-[[4-[5-(trifluoromethyl)-1,2,4-oxadiazol-3-yl]phenyl]methyl] methanesulfonamide]
≥ 80%: pest or weed control at 200 ppm [1] | inhibition at 20 ppm [2] | pest or weed control at 200 ppm [3]

CC(C)N(Cc1ccc(-c2noc(C(F)(F)F)n2)cc1)S(=O)(=O)c1ccn(C)n1 [Compound 1.82, N-isopropyl-1-methyl-N-[[4-[5-(trifluoromethyl)-1,2,4-oxadiazol-3-yl]phenyl]methyl] pyrazole-3-sulfonamide]
≥ 80%: pest or weed control at 200 ppm [1] | inhibition at 20 ppm [2] | pest or weed control at 200 ppm [3]

COCCS(=O)(=O)N(Cc1ccc(-c2noc(C(F)(F)F)n2)cc1)C(C)C [Compound 1.83, N-isopropyl-2-methoxy-N-[[4-[5-(trifluoromethyl)-1,2,4-oxadiazol-3-yl]phenyl]methyl] ethanesulfonamide]
≥ 80%: pest or weed control at 200 ppm [1] | inhibition at 20 ppm [2] | pest or weed control at 200 ppm [3]

C/C=C/S(=O)(=O)N(Cc1ccc(-c2noc(C(F)(F)F)n2)cc1)C(C)C [Compound 1.84, (E)-N-isopropyl-N-[[4-[5-(trifluoromethyl)-1,2,4-oxadiazol-3-yl]phenyl]methyl] prop-1-ene-1-sulfonamide]
≥ 80%: pest or weed control at 200 ppm [1] | inhibition at 20 ppm [2] | pest or weed control at 200 ppm [3]

COC(=O)CS(=O)(=O)N(Cc1ccc(-c2noc(C(F)(F)F)n2)cc1)C(C)C [Compound 1.85, methyl 2-[isopropyl-[[4-[5-(trifluoromethyl)-1,2,4-oxadiazol-3-yl]phenyl]methyl]sulfamoyl]acetate]
≥ 80%: pest or weed control at 200 ppm [1] | inhibition at 20 ppm [2] | pest or weed control at 200 ppm [3]

CC(C)N(Cc1ccc(-c2noc(C(F)(F)F)n2)cc1)S(C)(=O)=O [Compound 1.86, N-isopropyl-N-[[4-[5-(trifluoromethyl)-1,2,4-oxadiazol-3-yl]phenyl]methyl] methanesulfonamide]
≥ 80%: pest or weed control at 200 ppm [1] | inhibition at 20 ppm [2] | pest or weed control at 200 ppm [3]

CNS(=O)(=O)N(Cc1ccc(-c2noc(C(F)(F)F)n2)cc1)C(C)C [Compound 1.87, 3-[4-[[isopropyl (methylsulfamoyl)amino]methyl]phenyl]-5-(trifluoromethyl)-1,2,4-oxadiazole]
≥ 80%: pest or weed control at 200 ppm [1] | inhibition at 20 ppm [2] | pest or weed control at 200 ppm [3]

CC(C)N(Cc1ccc(-c2noc(C(F)(F)F)n2)cc1)S(=O)(=O)C1CC1 [Compound 1.98, N-isopropyl-N-[[4-[5-(trifluoromethyl)-1,2,4-oxadiazol-3-yl]phenyl]methyl] cyclopropanesulfonamide]
≥ 80%: pest or weed control at 200 ppm [1] | inhibition at 20 ppm [2] | pest or weed control at 200 ppm [3]

CC(C)N(Cc1ccc(-c2noc(C(F)(F)F)n2)cc1)S(=O)(=O)N(C)C [Compound 1.100, N-(dimethylsulfamoyl)-N-[[4-[5-(trifluoromethyl)-1,2,4-oxadiazol-3-yl]phenyl]methyl] propan-2-amine]
≥ 80%: pest or weed control at 200 ppm [1] | inhibition at 20 ppm [2] | pest or weed control at 200 ppm [3]

CCN(Cc1ccc(-c2noc(C(F)(F)F)n2)cc1F)S(=O)(=O)N(C)C [Compound 1.105, N-(dimethylsulfamoyl)-N-[[2-fluoro-4-[5-(trifluoromethyl)-1,2,4-oxadiazol-3-yl]phenyl]methyl] ethanamine]
≥ 80%: pest or weed control at 200 ppm [1] | inhibition at 20 ppm [2] | pest or weed control at 200 ppm [3]

CCN(Cc1ccc(-c2noc(C(F)(F)F)n2)c(F)c1)S(=O)(=O)N(C)C [Compound 1.106, N-(dimethylsulfamoyl)-N-[[3-fluoro-4-[5-(trifluoromethyl)-1,2,4-oxadiazol-3-yl]phenyl]methyl] ethanamine]
≥ 80%: pest or weed control at 200 ppm [1] | inhibition at 20 ppm [2] | pest or weed control at 200 ppm [3]

CCN(Cc1ccc(-c2noc(C(F)(F)F)n2)c(F)c1F)S(=O)(=O)N(C)C [Compound 1.107, N-[[2,3-difluoro-4-[5-(trifluoromethyl)-1,2,4-oxadiazol-3-yl]phenyl]methyl]-N-(dimethylsulfamoyl) ethanamine]
≥ 80%: pest or weed control at 200 ppm [1] | inhibition at 20 ppm [2] | pest or weed control at 200 ppm [3]

CCCS(=O)(=O)NCc1ccc(-c2noc(C(F)(F)F)n2)cc1 [Compound 2.4, N-[[4-[5-(trifluoromethyl)-1,2,4-oxadiazol-3-yl]phenyl]methyl] propane-1-sulfonamide]
≥ 80%: pest or weed control at 200 ppm [1] | inhibition at 20 ppm [2] | pest or weed control at 200 ppm [3]

CCCS(=O)(=O)NCc1ccc(-c2noc(C(F)(F)F)n2)c(F)c1 [Compound 2.5, N-[[3-fluoro-4-[5-(trifluoromethyl)-1,2,4-oxadiazol-3-yl]phenyl]methyl] propane-1-sulfonamide]
≥ 80%: pest or weed control at 200 ppm [1] | inhibition at 20 ppm [2] | pest or weed control at 200 ppm [3]

CCCS(=O)(=O)NCc1ccc(-c2noc(C(F)(F)F)n2)cc1F [Compound 2.6, N-[[2-fluoro-4-[5-(trifluoromethyl)-1,2,4-oxadiazol-3-yl]phenyl]methyl] propane-1-sulfonamide]
≥ 80%: pest or weed control at 200 ppm [1] | inhibition at 20 ppm [2] | pest or weed control at 200 ppm [3]

C=CCS(=O)(=O)NCc1ccc(-c2noc(C(F)(F)F)n2)cc1 [Compound 2.7, N-[[4-[5-(trifluoromethyl)-1,2,4-oxadiazol-3-yl]phenyl]methyl] prop-2-ene-1-sulfonamide]
≥ 80%: pest or weed control at 200 ppm [1] | inhibition at 20 ppm [2] | pest or weed control at 200 ppm [3]

COC(=O)CCS(=O)(=O)NCc1ccc(-c2noc(C(F)(F)F)n2)cc1 [Compound 2.8, methyl 3-[[4-[5-(trifluoromethyl)-1,2,4-oxadiazol-3-yl]phenyl]methyl-sulfamoyl] propanoate]
≥ 80%: pest or weed control at 200 ppm [1] | inhibition at 20 ppm [2] | pest or weed control at 200 ppm [3]

— patent US20210101874A1, “MICROBIOCIDAL OXADIAZOLE DERIVATIVES” (SYNGENTA PARTICIPATIONS AG, priority 2017, published 2021)
